Structures can show the parent of a compound that is named as a salt. Where two headings read alike, the source gives them in different places.
Tests used:
[1] = Plasma and inner ear fluid exposure after single trans-tympanic injection in lipid-based mucoadhesive solution (Example 3); type: in vivo, male Wistar rats; conditions: for concentration at 1 h: T0 + 1 hour; for concentration at 24 h: T0 + 24 hours; for High concentrations rapidly reached in the IEF (molar) / High concentrations rapidly reached in the inner ear fluid: trans-tympanic injection; for High concentrations rapidly reached in the IEF (molar): approximate conversion; for High concentrations rapidly reached in the inner ear fluid: summary
Protocol: Composition 7P and composition 7X as described in example 2 were administered to male Wistar rats (5 animals per active agent and timepoint), as described below.
At time T0, 30 μL of composition 7P were administered to 15 rats, in a single ear via trans-tympanic injection. The dose of paliroden fumarate that has been administered is thus of 243 μg in one ear of each rat.
At time T0, 30 μL of composition 7X were administered to 15 other rats, in a single ear via trans-tympanic injection. The dose of xaliproden hydrochloride that has been administered is thus of 181.2 μg in one ear of each rat.
For the 15 rats that have received composition 7P and for the 15 rats that have received composition 7X, plasmatic and inner ear expositions were determined via blood and cochlea terminal sampling in order to achieve lithium-heparin plasma and inner ear fluid preparation, at T+1 hour, T+24 hours and T+168 hours. Bioanalytical methods were validated in both matrices (lithium heparin plasma and inner ear fluid) with a range of 0.2 to 815 ng/mL for paliroden (fumarate salt) and 0.2 to 763 ng/mL for xaliproden (hydrochloride salt).

[2] = test system: male CBA/CaJ mice; test: ABR Wave I amplitude after noise-induced temporary hearing loss (Example 8); type: in vivo
Protocol: Twelve male CBA/CaJ mice were selected and evenly distributed to treatment and control groups, each group comprising 4 mice at the end of the study. Randomization was performed using the ABR threshold in the left ear at 16 kHz as a criterium. The “sham” group consists in mice (n=4) that received neither noise exposure nor trans-tympanic injection. The “Traumatized” group consists in mice (n=4) that received noise exposure only. The “traumatized paliroden” group consists in mice (n=4) that received noise exposure and trans-tympanic injections of a composition comprising paliroden (fumarate salt), corresponding to composition 4P described in Example 2.
All animals (except sham group) received a bilateral noise exposure at a noise band of 8-16 kHz at 95 dB SPL RMS during 2 hours (from time T0 to time T0+2 hours) in awake conditions.
Five microliters of a composition comprising paliroden as active agent were administered once in both ears of each mice of the treatment groups (5 μL per ear) via trans-tympanic administration by injection between the eardrum and the round window by means of a needle which crosses the eardrum, 24 hours post noise exposure, under isoflurane anesthesia. […]

[3] = test system: synaptic ribbons in inner hair cells; test: Ribbon synapse immunostaining and counting in cochlea, immediate treatment (Example 6); type: in vivo, male Wistar rats; conditions: 2 hours and 8 days post-noise; for Number of pre-synaptic elements CtBP2 per IHC: 25 kHz and 32 kHz; for Number of pre-synaptic elements CtBP2 per IHC / Number of colocalized ribbons per IHC: vs traumatized vehicle group; for Number of colocalized ribbons per IHC: 25 kHz, paliroden 300 μg/ear, xaliproden 150 μg/ear; for Synapse loss in the inner hair cells: regions coding high frequency sounds
Protocol: At T+28DAYS, after DPOAE/ABR measures, 10 cochleae (all eight (8) left cochleae and two (2) right cochleae taken randomly) per group were rapidly sampled and immediately fixed by PFA perfusion (through the round and oval windows with PFA 4% after creating a small hole at the apex) in order to performed ribbon synapse immunostaining and analysis. Cochleae were fixed for 1 hour in a 4% PFA solution and decalcified in undiluted RDO (10 mL/cochlea for a minimum of 2 hours). The membranous and sensory spiral containing the organ of Corti are dissected out as a flat surface preparation under a dissecting microscope and immunolabelled with appropriate antibodies: • Vglut3 (Vglut3-Guinea Pig IgG; #135 204, Synaptic systems and Anti-Guinea Pig IgG (H+L), #A21450; Thermo Fisher Scientific 647 nm Far-Red) to stain inner hair cell bodies (vesicular glutamate transporter). • Homer (Homer-Rabbit IgG; #GTX103278; Genetex and Anti-Rabbit IgG (H+L) #A11008 Thermo Fisher Scientific 568 nm Red) to stain dendritic proteins of auditory nerve fibers connecting to IHC (post-synaptic). • CtBP2 (CtBP2-Mouse-IgG1; #612044; BD Transduction Laboratories and Anti-Mouse IgG1, #A21121, Thermo Fisher Scientific 488 Green) to stain the ribeye protein as pre-synaptic marker in IHC. • Phalloidin (Alexa Fluor™ Plus 405 Phalloidin; #A30104; Thermo Fisher Scientific 405 Blue).
Images were acquired on a confocal microscope and the slides were analyzed to i) evaluate by visual observation the presence of OHC (outer hair cells) and IHC (inner hair cells) (based on nuclei staining with CtBP2 and HC cell body staining with phalloidin) and ii) count the number of synaptic ribbons in selected inner hair cells in cochlea regions coding sound of selected frequency (16 kHz, 25 kHz and 32 kHz).
The number of pre- (CtBP2) and post-synaptic (Homer) labeled spots was counted using Imaris software in 3 dimensions for each image. Co-localization of pre- and post-synaptic elements was defined as a distance of maximum […] between CtBP2- and Homer-labeled spots, using an in-house Matlab program to calculate the distances between CtBP2 and Homer labels from the x, y, and z coordinates.

[4] = male, Wistar, other: trans-tympanic injection, rat inner ear fluid, trans-tympanic 243 μg, read-out: Concentration of paliroden (fumarate salt), IEF, Mean
[5] = male, Wistar, plasma, other: trans-tympanic injection, rat, trans-tympanic 243 μg one ear, read-out: Concentration of paliroden (fumarate salt), Plasma, Mean
[6] = male, Wistar, other: trans-tympanic injection, rat inner ear fluid, trans-tympanic 181.2 μg, read-out: Concentration of xaliproden (hydrochloride salt), IEF, Mean
[7] = male, Wistar, plasma, other: trans-tympanic injection, rat, trans-tympanic 181.2 μg one ear, read-out: Concentration of xaliproden (hydrochloride salt), Plasma, Mean

concentration at 1 h [1, 4] [ng/mL]	concentration at 24 h [1, 4] [ng/mL]	concentration at 1 h [1, 5] [ng/mL]	concentration at 24 h [1, 5] [ng/mL]	Concentration of paliroden (fumarate salt), IEF, Mean ([1]; rat inner ear fluid, trans-tympanic 243 μg, T0 + 168 hours)	Concentration of paliroden (fumarate salt), Plasma, Mean ([1]; rat, trans-tympanic 243 μg one ear, T0 + 168 hours)	High concentrations rapidly reached in the IEF (molar) ([1]; rat)	High concentrations rapidly reached in the inner ear fluid ([1]; rat)	concentration at 1 h [1, 6] [ng/mL]	concentration at 24 h [1, 6] [ng/mL]	concentration at 1 h [1, 7] [ng/mL]	concentration at 24 h [1, 7] [ng/mL]	concentration at 168 h ([1]; male, Wistar, plasma, other: trans-tympanic injection, rat, trans-tympanic 181.2 μg one ear, T0 + 168 hours, read-out: Concentration of xaliproden (hydrochloride salt), Plasma, Mean) [ng/mL]	Concentration of xaliproden (hydrochloride salt), IEF, Mean ([1]; rat inner ear fluid, trans-tympanic 181.2 μg, T0 + 168 hours)	Structure (SMILES)	Recovery of the ABR Wave I amplitudes ([2]; 5 weeks post-noise, 16, 25, 32, 40, 45 kHz, paliroden 50 μg/ear one day post-noise)	ABR Wave I amplitude recovery in comparison to traumatized untreated mice, subset analysis ([2]; 25, 32, 40 and 45 kHz, p values <0.001)	Number of pre-synaptic elements CtBP2 per IHC [3]	Number of colocalized ribbons per IHC [3]	Synapse loss in the inner hair cells [3]
5100	3.2	0.9	1.7	BLQ	BLQ	approximately 10 μM	approximately 5000 ng/mL	–	–	–	–	–	–	FC(F)(F)c1cccc(C2=CCN(CCc3ccc(-c4ccccc4)cc3)CC2)c1 [paliroden (fumarate salt), 1-[2-(4-biphenylyl)ethyl]-4-(3-trifluoromethylphenyl)-1,2,3,6-tetrahydropyridine]	complete recovery	statistically significant	increase	increase	tend to repair synapse loss
–	–	–	–	–	–	~5 µM	~2500 ng/mL	2510	74.3	4.4	5.2	0.5	BLQ	FC(F)(F)c1cccc(C2=CCN(CCc3ccc4ccccc4c3)CC2)c1 [xaliproden (hydrochloride salt), 1-[2-(2-naphthyl)ethyl]-4-(3-trifluoromethylphenyl)-1,2,3,6-tetrahydropyridine]	–	–	increase	increase	tend to repair synapse loss

From patent US20230390273A1, “4-PHENYL-TETRAHYDROPYRIDINE DERIVATIVES FOR TREATING HEARING DISEASES” (CILCARE DEV, priority 2021, published 2023)
